Data published in paper PMC4650696, “Novel anti-thrombotic agent for modulation of protein disulfide isomerase family member ERp57 for prophylactic therapy” (Scientific Reports, 2015).
pIC50: −log10 of the molar value.

Experiments:
ERp5 [1] = target: T1, ERp5 (Rattus norvegicus, UniProt Q63081); assay: competition of BAA pull-down by excess untagged ADTM, immunoblot; […] inhibition of ERp5 activity at […]; format: cell-based
T1 construct: gene Pdia6; endogenous, rat platelet lysate
T1 sequence (Q63081 20-440): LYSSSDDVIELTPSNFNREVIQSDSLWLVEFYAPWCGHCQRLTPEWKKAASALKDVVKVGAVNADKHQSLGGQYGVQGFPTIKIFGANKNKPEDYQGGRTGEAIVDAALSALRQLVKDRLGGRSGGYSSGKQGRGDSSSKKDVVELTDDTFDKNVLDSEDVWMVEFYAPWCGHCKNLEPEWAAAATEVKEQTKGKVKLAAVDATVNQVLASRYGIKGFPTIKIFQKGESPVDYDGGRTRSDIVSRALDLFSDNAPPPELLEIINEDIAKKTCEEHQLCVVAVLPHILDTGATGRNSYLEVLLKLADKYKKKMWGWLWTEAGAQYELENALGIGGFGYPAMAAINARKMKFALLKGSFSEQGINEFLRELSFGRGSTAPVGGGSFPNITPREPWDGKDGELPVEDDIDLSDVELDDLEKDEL

PDI = target: T2, PDI (Homo sapiens, UniProt P07237); assay: insulin reduction turbidity assay with recombinant PDI (weak); format: biochemical
T2 construct: gene P4HB; recombinant PDI
T2 sequence (P07237 18-508): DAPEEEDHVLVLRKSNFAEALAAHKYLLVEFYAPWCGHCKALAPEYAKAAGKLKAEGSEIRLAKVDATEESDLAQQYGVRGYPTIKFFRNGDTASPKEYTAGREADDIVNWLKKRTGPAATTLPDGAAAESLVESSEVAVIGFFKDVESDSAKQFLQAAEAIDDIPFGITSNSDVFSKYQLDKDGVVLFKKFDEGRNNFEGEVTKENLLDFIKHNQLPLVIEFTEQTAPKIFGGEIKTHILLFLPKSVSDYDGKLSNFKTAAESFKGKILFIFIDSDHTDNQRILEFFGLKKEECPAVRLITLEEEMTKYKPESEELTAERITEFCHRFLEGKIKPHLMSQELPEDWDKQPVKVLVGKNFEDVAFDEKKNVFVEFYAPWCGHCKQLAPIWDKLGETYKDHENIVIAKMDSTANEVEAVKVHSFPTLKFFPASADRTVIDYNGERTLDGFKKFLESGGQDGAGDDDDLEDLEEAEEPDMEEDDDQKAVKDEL

ERp72 [2] = target: T3, ERp72 (Rattus norvegicus, UniProt P38659); assay: competition of BAA pull-down by excess untagged ADTM, immunoblot; only […] inhibition of recombinant ERp72 at […]; format: cell-based
T3 construct: gene Pdia4; endogenous, rat platelet lysate
T3 sequence (P38659 21-643): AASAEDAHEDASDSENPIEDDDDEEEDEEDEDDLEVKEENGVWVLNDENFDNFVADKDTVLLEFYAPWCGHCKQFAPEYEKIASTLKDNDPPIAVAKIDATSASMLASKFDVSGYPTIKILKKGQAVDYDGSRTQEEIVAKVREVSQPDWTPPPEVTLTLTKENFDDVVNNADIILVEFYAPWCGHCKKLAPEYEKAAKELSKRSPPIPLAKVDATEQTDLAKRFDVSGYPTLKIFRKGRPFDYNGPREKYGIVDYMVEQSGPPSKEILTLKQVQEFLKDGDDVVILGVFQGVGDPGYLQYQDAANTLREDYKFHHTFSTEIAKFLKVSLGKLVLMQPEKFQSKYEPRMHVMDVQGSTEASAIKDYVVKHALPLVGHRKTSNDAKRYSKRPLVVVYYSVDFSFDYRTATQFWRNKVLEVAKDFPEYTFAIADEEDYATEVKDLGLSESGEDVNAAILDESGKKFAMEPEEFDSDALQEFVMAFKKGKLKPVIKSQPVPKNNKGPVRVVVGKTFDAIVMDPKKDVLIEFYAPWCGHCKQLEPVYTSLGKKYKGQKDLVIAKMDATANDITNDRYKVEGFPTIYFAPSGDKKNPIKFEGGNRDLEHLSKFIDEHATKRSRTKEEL

ERp57 [3] = target: T4, ERp57 (Homo sapiens, UniProt P30101); assay: insulin reduction turbidity assay with recombinant ERp57; irreversible after dilution; also competes with BAA in rat platelet lysate pull-down; format: biochemical
T4 construct: gene PDIA3; human recombinant ERp57
T4 sequence (P30101 25-505): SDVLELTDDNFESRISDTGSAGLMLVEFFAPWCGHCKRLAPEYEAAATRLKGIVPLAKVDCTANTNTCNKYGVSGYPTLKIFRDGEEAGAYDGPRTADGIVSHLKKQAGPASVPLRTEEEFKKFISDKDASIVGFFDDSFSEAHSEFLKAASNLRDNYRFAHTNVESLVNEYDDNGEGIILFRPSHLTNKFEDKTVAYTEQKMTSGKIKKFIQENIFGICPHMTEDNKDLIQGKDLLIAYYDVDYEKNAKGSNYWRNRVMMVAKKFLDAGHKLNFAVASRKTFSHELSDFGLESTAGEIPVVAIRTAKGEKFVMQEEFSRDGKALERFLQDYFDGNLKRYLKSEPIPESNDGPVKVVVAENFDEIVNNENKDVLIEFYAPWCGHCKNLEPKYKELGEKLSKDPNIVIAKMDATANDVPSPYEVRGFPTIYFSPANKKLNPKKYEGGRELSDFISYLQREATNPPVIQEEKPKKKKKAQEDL

ERp72 [4] = target: T3, ERp72; assay: NeutrAvidin pull-down from platelet lysate, LC-MS/MS and immunoblot, competed by excess ADTM; format: cell-based
ERp5 [5] = target: T1, ERp5; assay: as above; format: cell-based
ERp57 [6] = target: T5, ERp57 (Rattus norvegicus, UniProt P11598); assay: as above; format: cell-based
T5 construct: gene Pdia3; endogenous, rat platelet lysate
T5 sequence (P11598 25-505): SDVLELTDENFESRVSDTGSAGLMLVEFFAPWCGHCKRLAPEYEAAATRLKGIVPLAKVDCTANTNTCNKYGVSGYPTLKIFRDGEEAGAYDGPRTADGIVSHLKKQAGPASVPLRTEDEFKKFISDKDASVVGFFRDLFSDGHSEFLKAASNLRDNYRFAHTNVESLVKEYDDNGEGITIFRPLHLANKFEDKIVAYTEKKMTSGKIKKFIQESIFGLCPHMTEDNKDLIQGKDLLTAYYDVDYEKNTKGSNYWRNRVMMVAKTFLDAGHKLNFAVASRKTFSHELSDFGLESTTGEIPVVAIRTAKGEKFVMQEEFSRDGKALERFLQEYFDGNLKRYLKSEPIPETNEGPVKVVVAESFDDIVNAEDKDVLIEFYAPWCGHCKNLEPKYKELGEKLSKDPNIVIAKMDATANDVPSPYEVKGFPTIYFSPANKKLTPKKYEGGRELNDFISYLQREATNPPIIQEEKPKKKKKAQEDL

inhibition at 300 µM (ERp5 [1])	inhibition at 300 µM (PDI)	inhibition at 300 µM (ERp72 [2])	pIC50 (ERp57 [3])	SMILES	NeutrAvidin pull-down from platelet lysate, LC-MS/MS and immunoblot, competed by (ERp72 [4])	NeutrAvidin pull-down from platelet lysate, LC-MS/MS and immunoblot, competed by (ERp5 [5])	NeutrAvidin pull-down from platelet lysate, LC-MS/MS and immunoblot, competed by (ERp57 [6])
38%	30%	18%	3.52 to 4.00	CC(=O)Oc1ccc(C[C@@H](OC(C)=O)C(=O)OCc2nc(C)c(C)nc2C)cc1OC(C)=O [ADTM]			
				O=C1N[C@H]2[C@H](CS[C@H]2CCCCC(=O)O[C@H](Cc2ccc(O)c(O)c2)C(=O)OCc2ccccc2)N1 [BAA]	We confirmed the identity of the pulled-down proteins as ERp72, ERp57 and ERp5 with their respective antibodies	We confirmed the identity of the pulled-down proteins as ERp72, ERp57 and ERp5 with their respective antibodies	specificity of the binding between BAA and these targets (ERp72, ERp57 and ERp5) could be demonstrated by the competition
